This note sets out measurements from US20220202017A1, “MESOIONIC IMIDAZOLIUM COMPOUNDS AND DERIVATIVES FOR COMBATING ANIMAL PESTS” (BASF SE, priority 2019, published 2022).

SMILES strings stand for the structures. Read-outs that look alike come from different tables or passages of the source. A value given as a limit tells only on which side of the number the result lay.

Common to all, as to format: in vivo
The subject of one test is Megoura viciae. In words: Vetch aphid (Megoura viciae) control through contact or systemic means, broad bean leaf disks. Conditions: foliar, 120 h, read-out: mortality in comparison with untreated controls (aphid mortality). The procedure:
Vetch Aphid (Megoura viciae)
For evaluating control of vetch aphid (Megoura viciae) through contact or systemic means the test unit consisted of 24-well-microtiter plates containing broad bean leaf disks.
The compounds were formulated using a solution containing 75% v/v water and 25% v/v DMSO. Different concentrations of formulated compounds were sprayed onto the leaf disks at 2.5 μl, using a custom built micro atomizer, at two replications. After application, the leaf disks were air-dried and 5-8 adult aphids placed on the leaf disks inside the microtiter plate wells. The aphids were then allowed to suck on the treated leaf disks and incubated at about 23±1° C. and about 50±5% relative humidity for 5 days. Aphid mortality and fecundity was then visually assessed.

A further test relates to Myzus persicae. The experiment in a line: Green peach aphid (Myzus persicae) control through systemic means, artificial diet under membrane. Conditions: 72 h, read-out: mortality in comparison with untreated controls (aphid mortality). The source says: Green Peach Aphid (Myzus persicae)
For evaluating control of green peach aphid (Myzus persicae) through systemic means the test unit consisted of 96-well-microtiter plates containing liquid artificial diet under an artificial membrane. The compounds were formulated using a solution containing 75% v/v water and 25% v/v DMSO. Different concentrations of formulated compounds were pipetted into the aphid diet, using a custom built pipetter, at two replications. After application, 5-8 adult aphids were placed on the artificial membrane inside the microtiter plate wells. The aphids were then allowed to suck on the treated aphid diet and incubated at about 23±1° C. and about 50±5% relative humidity for 3 days. Aphid mortality and fecundity was then visually assessed.

In the next test the test system is Heliothis virescens. In words: Tobacco budworm (Heliothis virescens) control, 96-well microtiter plate with insect diet and eggs. The settings on record: 120 h, sprayed onto insect diet, 5 days, visually assessed, read-out: mortality in comparison with untreated controls (egg and larval mortality). As for the experimental part:
Tobacco Budworm (Heliothis virescens)
For evaluating control of tobacco budworm (Heliothis virescens) the test unit consisted of 96-well-microtiter plates containing an insect diet and 15-25 H. virescens eggs. The compounds were formulated using a solution containing 75% v/v water and 25% v/v DMSO. Different concentrations of formulated compounds were sprayed onto the insect diet at 10 μl, using a custom built micro atomizer, at two replications. After application, microtiter plates were incubated at about 28±1° C. and about 80±5% relative humidity for 5 days. Egg and larval mortality was then visually assessed.

The subject of another test is Anthonomus grandis. In words: Boll weevil (Anthonomus grandis) control, 96-well microtiter plate with insect diet and eggs. The settings on record: 120 h, sprayed onto insect diet, 5 days, visually assessed, read-out: mortality in comparison with untreated controls (egg and larval mortality). The procedure: Boll Weevil (Anthonomus grandis)
For evaluating control of boll weevil (Anthonomus grandis) the test unit consisted of 96-well-microtiter plates containing an insect diet and 5-10 A. grandis eggs. The compounds were formulated using a solution containing 75% v/v water and 25% v/v DMSO. Different concentrations of formulated compounds were sprayed onto the insect diet at 5 μl, using a custom built micro atomizer, at two replications. After application, microtiter plates were incubated at about 25±1° C. and about 75±5% relative humidity for 5 days. Egg and larval mortality was then visually assessed.

The mark [1] stands for this setting: 2500 ppm, sprayed onto leaf disks, 5 days, visually assessed.
[2] abbreviates: 2500 ppm, pipetted into aphid diet, 3 days, visually assessed.

A word on the mortality: it is the percentage killed. As for `CCn1c([O-])c(C(=O)c2ccccc2)[n+]2c1SCC2c1ccc(Cl)nc1` (centres unmarked) [Compound C-1, 5-benzoyl-3-(6-chloro-3-pyridyl)-7-ethyl-2,3-dihydroimidazo[2,1-b]thiazol-4-ium-6-olate], the mortality at 2500 ppm in the test on Megoura viciae and in the test on Myzus persicae was over 75% in each case.
Regarding `CC(=O)c1c([O-])[n+](C)c2n1C(c1cnc(Cl)s1)CS2` (centres unmarked) [Compound C-2], the mortality at 2500 ppm in the test on Megoura viciae and with Myzus persicae was over 75% in each case.
For `C[n+]1c([O-])c(C(=O)C(F)F)n2c1SCC2c1cnc(Cl)s1` (centres unmarked) [Compound C-3], the mortality at 2500 ppm in the test with Heliothis virescens, in the test with Megoura viciae and in the test on Myzus persicae was over 75% each time.
Take `C[n+]1c([O-])c(C(=O)c2ccccc2)n2c1SCC2CC#N` (centres unmarked) [Compound C-4]: the mortality at 2500 ppm in the test on Megoura viciae (setting [1]) and in the test on Myzus persicae (setting [2]) was over 75% each time.
Turning to `CC[n+]1c([O-])c(C(=O)C(F)(F)C(F)(F)F)n2c1SCC2c1ccc(Cl)nc1` (centres unmarked) [Compound C-6], the mortality at 2500 ppm in the test with Anthonomus grandis, in the test on Heliothis virescens, with Megoura viciae and with Myzus persicae was over 75% in each case.
On to `CC[n+]1c([O-])c(C(=O)c2cccs2)n2c1SCC2c1ccc(Cl)nc1` (centres unmarked) [Compound C-7], for which the mortality at 2500 ppm with Anthonomus grandis, with Megoura viciae and in the test with Myzus persicae was over 75% throughout.
For the compound `CC[n+]1c([O-])c(C(C)=O)n2c1SCC2c1ccc(Cl)nc1` (centres unmarked) [Compound C-8], the mortality at 2500 ppm in the test on Anthonomus grandis, in the test on Megoura viciae and in the test with Myzus persicae was over 75% throughout.
Turning to `C[n+]1c([O-])c(C(=O)C(=O)OCC(F)(F)F)n2c1SC[C@@H]2c1cnc(Cl)s1` [Compound C-9], the mortality at 2500 ppm in the test on Megoura viciae (setting [1]) and in the test with Myzus persicae (setting [2]) was over 75% each time.
On to `CC[n+]1c([O-])c(C(=O)C(=O)OCC(F)(F)F)n2c1SCC2c1ccc(Cl)nc1` (centres unmarked) [Compound C-10], for which the mortality at 2500 ppm with Megoura viciae and in the test on Myzus persicae was over 75% each time.
On to `CCOC(=O)C(=O)C1=C(O)N(C)C2N(C)CC(c3cnc(Cl)s3)N12` (centres unmarked) [Compound C-12], for which the mortality at 2500 ppm in the test on Anthonomus grandis, with Heliothis virescens and with Myzus persicae was over 75% throughout.
